Consider seven compounds from ChEMBL document CHEMBL1157412, “Cytotoxic alkaloids and antibiotic nordammarane triterpenoids from the marine-derived fungus Aspergillus sydowi” (J Nat Prod, 2008).

In brackets after ≈: the same amount, converted by molar mass.

The test system of one assay is Micrococcus luteus. As to the kind of experiment: Antimicrobial activity against Micrococcus lysodeikticus after 24 hrs by disk diffusion method.
Conditions: not given
The assay is classed as functional. (In general: In agar diffusion tests the substance spreads into inoculated agar from a disc or well.)
In general, MIC refers to the least concentration at which growth counts as inhibited. A low value points to greater potency. For `C/C=C\[C@H](O)[C@H](O)C1=C(C)C(=O)[C@]2(O1)C(=O)N[C@@](OC)(C(=O)c1ccccc1)[C@@H]2O` [14-NORPSEUROTIN A], the MIC was determined as 7.49 µM (≈ 3.13 µg/mL).

Consider `CC(=O)O[C@H]1C[C@@]2(C)[C@@H](CC[C@H]3[C@@]4(C)C=CC(=O)[C@@H](C)[C@@H]4[C@H](OC(C)=O)C(=O)[C@@]32C)/C1=C(\CCC=C(C)C)C(=O)O` [HELVOLIC ACID], for which inhibition of growth (MIC) required 11 µM (≈ 6.25 µg/mL).

In turn, `CC/C=C\[C@H](O)[C@H](O)C1=C(C)C(=O)[C@]2(O1)C(=O)N[C@@](OC)(C(=O)c1ccccc1)[C@@H]2O` [PSEUROTIN A] came in with an MIC of 7.42 µM (≈ 3.2 µg/mL).

Consider `CC(=O)O[C@H]1C[C@@]2(C)[C@@H](CC[C@H]3[C@@]4(C)C=CC(=O)[C@@H](C)[C@@H]4[C@H](OC(C)=O)C(=O)[C@@]32C)/C1=C(\CCCC(C)(C)O)C(=O)O`, for which the MIC was found to be 10.7 µM (≈ 6.25 µg/mL).

The subject of another assay is Escherichia coli. Kind of assay: Antimicrobial activity against Escherichia coli after 24 hrs by disk diffusion method. The assay is classed as functional.
Conditions: not given
As for `C/C=C\[C@H](O)[C@H](O)C1=C(C)C(=O)[C@]2(O1)C(=O)N[C@@](OC)(C(=O)c1ccccc1)[C@@H]2O` [14-NORPSEUROTIN A], the MIC worked out at 3.74 µM (≈ 1.56 µg/mL).

With `CC(=O)O[C@H]1C[C@@]2(C)[C@@H](CC[C@H]3[C@@]4(C)C=CC(=O)[C@@H](C)[C@@H]4[C@H](OC(C)=O)C(=O)[C@@]32C)/C1=C(\CCC=C(C)C)C(=O)O` [HELVOLIC ACID], 87.9 µM (≈ 50 µg/mL) was the least that counted as inhibitory (MIC).

`CC/C=C\[C@H](O)[C@H](O)C1=C(C)C(=O)[C@]2(O1)C(=O)N[C@@](OC)(C(=O)c1ccccc1)[C@@H]2O` [PSEUROTIN A] yielded an MIC of 14.5 µM (≈ 6.25 µg/mL).

For the compound `CC(=O)O[C@H]1C[C@@]2(C)[C@@H](CC[C@H]3[C@@]4(C)C=CC(=O)[C@@H](C)[C@@H]4[C@H](OC(C)=O)C(=O)[C@@]32C)/C1=C(\CCCC(C)(C)O)C(=O)O`, the lowest concentration to inhibit growth (MIC) was 10.7 µM (≈ 6.25 µg/mL).

In the next assay the test system is A549. As to the kind of experiment: Cytotoxicity against human A549 cells after 72 hrs by MTT assay. It counts as functional, cell-based. The conditions noted are these: A549, 72 h. For orientation: Tetrazolium assays rely on reduction of a dye to a coloured formazan, in cell work by metabolically active cells.
The term IC50 denotes the concentration that gives 50% inhibition. `CC(C)=CCc1cccc2c(C[C@H]3C(=O)N[C@@H](C)C(=O)N3O)c[nH]c12` displayed a half-maximal inhibitory concentration (IC50) of 7.31 µM.

On to `COc1ccc2c(C[C@@H]3NC(=O)[C@@H]4CCCN4C3=O)c(C(=O)C=C(C)C)[nH]c2c1` [18-OXOTRYPROSTATIN A], for which the IC50 worked out at 1.28 µM.

As to `COc1ccc2c(c1)NC(=O)[C@@]21C=C2C(=O)N3CCC[C@H]3C(=O)N2[C@H]1C=C(C)C` [SPIROTRYPROSTATIN B], the IC50 worked out at 8.29 µM.

The subject of a further assay is Bacillus subtilis. As to the kind of experiment: Antimicrobial activity against Bacillus subtilis after 24 hrs by disk diffusion method.
Conditions: not given
The assay is classed as functional.
With `C/C=C\[C@H](O)[C@H](O)C1=C(C)C(=O)[C@]2(O1)C(=O)N[C@@](OC)(C(=O)c1ccccc1)[C@@H]2O` [14-NORPSEUROTIN A], the lowest concentration to inhibit growth (MIC) was 15 µM (≈ 6.25 µg/mL).

The compound `CC(=O)O[C@H]1C[C@@]2(C)[C@@H](CC[C@H]3[C@@]4(C)C=CC(=O)[C@@H](C)[C@@H]4[C@H](OC(C)=O)C(=O)[C@@]32C)/C1=C(\CCC=C(C)C)C(=O)O` [HELVOLIC ACID] returned an MIC of 22 µM (≈ 12.5 µg/mL).

Consider `CC/C=C\[C@H](O)[C@H](O)C1=C(C)C(=O)[C@]2(O1)C(=O)N[C@@](OC)(C(=O)c1ccccc1)[C@@H]2O` [PSEUROTIN A], for which it took 14.5 µM (≈ 6.25 µg/mL) to inhibit growth (MIC). Compared with the last compound, the MIC is about 1.5-fold lower.

Compound `CC(=O)O[C@H]1C[C@@]2(C)[C@@H](CC[C@H]3[C@@]4(C)C=CC(=O)[C@@H](C)[C@@H]4[C@H](OC(C)=O)C(=O)[C@@]32C)/C1=C(\CCCC(C)(C)O)C(=O)O` yielded an MIC of 5.33 µM (≈ 3.13 µg/mL).

For the next assay, the system named is HL-60. As to the kind of experiment: Cytotoxicity against human HL60 cells after 72 hrs by MTT assay. It counts as functional, cell-based. As to conditions: HL-60, 72 h.
`COc1ccc2c(c1)NC(=O)[C@@]21C=C2C(=O)N3CCC[C@H]3C(=O)N2[C@H]1C=C(C)C` [SPIROTRYPROSTATIN B] came in with an IC50 of 9.71 µM.
